Data published in the CheMixHub viscosity set.

Assay: xn = mol fraction of the nth substance listed

OCCO + CN(C)C=O
Details | viscosity [mPa·s]
293.15 K, 101 kPa, x2 = 0.0864 | 16.12
293.15 K, 101 kPa, x2 = 0.1758 | 11.93
293.15 K, 101 kPa, x2 = 0.3623 | 6.277
293.15 K, 101 kPa, x2 = 0.5609 | 3.23
293.15 K, 101 kPa, x2 = 0.7734 | 1.66
293.15 K, 101 kPa, x2 = 0.8848 | 1.191
298.15 K, 100 kPa, x1 = 0.1049 | 1.27
298.15 K, 100 kPa, x1 = 0.2019 | 1.64
298.15 K, 100 kPa, x1 = 0.3063 | 2.27
298.15 K, 100 kPa, x1 = 0.3993 | 2.9
298.15 K, 100 kPa, x1 = 0.4986 | 3.95
298.15 K, 100 kPa, x1 = 0.6048 | 5.35
298.15 K, 100 kPa, x1 = 0.7069 | 7.24
298.15 K, 100 kPa, x1 = 0.8032 | 9.44
298.15 K, 100 kPa, x1 = 0.9054 | 12.85
298.15 K, 101 kPa, x1 = 0.5408 | 3.065
298.15 K, 101 kPa, x2 = 0.0864 | 13.24
298.15 K, 101 kPa, x2 = 0.1758 | 9.921
298.15 K, 101 kPa, x2 = 0.3623 | 5.381
298.15 K, 101 kPa, x2 = 0.5609 | 2.852
298.15 K, 101 kPa, x2 = 0.7734 | 1.518
298.15 K, 101 kPa, x2 = 0.8848 | 1.105
303.15 K, 100 kPa, x1 = 0.1049 | 1.23
303.15 K, 100 kPa, x1 = 0.2019 | 1.52
303.15 K, 100 kPa, x1 = 0.3063 | 2.03
303.15 K, 100 kPa, x1 = 0.3993 | 2.63
303.15 K, 100 kPa, x1 = 0.4986 | 3.6
303.15 K, 100 kPa, x1 = 0.6048 | 4.53
303.15 K, 100 kPa, x1 = 0.7069 | 6.12
303.15 K, 100 kPa, x1 = 0.8032 | 7.92
303.15 K, 100 kPa, x1 = 0.9054 | 10.48
303.15 K, 101 kPa, x2 = 0.0864 | 10.91
303.15 K, 101 kPa, x2 = 0.1758 | 8.25
303.15 K, 101 kPa, x2 = 0.3623 | 4.639
303.15 K, 101 kPa, x2 = 0.5609 | 2.551
303.15 K, 101 kPa, x2 = 0.7734 | 1.392
303.15 K, 101 kPa, x2 = 0.8848 | 1.027
308.15 K, 100 kPa, x1 = 0.1049 | 1.15
308.15 K, 100 kPa, x1 = 0.2019 | 1.4
308.15 K, 100 kPa, x1 = 0.3063 | 1.81
308.15 K, 100 kPa, x1 = 0.3993 | 2.41
308.15 K, 100 kPa, x1 = 0.4986 | 3.16
308.15 K, 100 kPa, x1 = 0.6048 | 4.05
308.15 K, 100 kPa, x1 = 0.7069 | 5.18
308.15 K, 100 kPa, x1 = 0.8032 | 6.83
308.15 K, 100 kPa, x1 = 0.9054 | 8.79
308.15 K, 101 kPa, x1 = 0.0257 | 0.758
308.15 K, 101 kPa, x1 = 0.0458 | 0.816
308.15 K, 101 kPa, x1 = 0.0974 | 0.872
308.15 K, 101 kPa, x1 = 0.1399 | 0.956
308.15 K, 101 kPa, x1 = 0.1921 | 1.151
308.15 K, 101 kPa, x1 = 0.2568 | 1.132
308.15 K, 101 kPa, x1 = 0.2919 | 1.453
308.15 K, 101 kPa, x1 = 0.3715 | 1.288
308.15 K, 101 kPa, x1 = 0.3822 | 1.814
308.15 K, 101 kPa, x1 = 0.4762 | 1.898
308.15 K, 101 kPa, x1 = 0.4917 | 2.392
308.15 K, 101 kPa, x1 = 0.5807 | 2.801
308.15 K, 101 kPa, x1 = 0.5882 | 3.131
308.15 K, 101 kPa, x1 = 0.6745 | 3.878
308.15 K, 101 kPa, x1 = 0.6889 | 4.137
308.15 K, 101 kPa, x1 = 0.7677 | 5.167
308.15 K, 101 kPa, x1 = 0.783 | 5.498
308.15 K, 101 kPa, x1 = 0.8456 | 6.582
308.15 K, 101 kPa, x1 = 0.885 | 7.454
308.15 K, 101 kPa, x1 = 0.9229 | 8.355
308.15 K, 101 kPa, x1 = 0.9484 | 9.02
308.15 K, 101 kPa, x1 = 0.968 | 10.48
308.15 K, 101 kPa, x2 = 0.0864 | 9.133
308.15 K, 101 kPa, x2 = 0.1758 | 7.023
308.15 K, 101 kPa, x2 = 0.3623 | 4.044
308.15 K, 101 kPa, x2 = 0.5609 | 2.289
308.15 K, 101 kPa, x2 = 0.7734 | 1.285
308.15 K, 101 kPa, x2 = 0.8848 | 0.957
313.15 K, 100 kPa, x1 = 0.1049 | 1.08
313.15 K, 100 kPa, x1 = 0.2019 | 1.28
313.15 K, 100 kPa, x1 = 0.3063 | 1.67
313.15 K, 100 kPa, x1 = 0.3993 | 2.24
313.15 K, 100 kPa, x1 = 0.4986 | 2.82
313.15 K, 100 kPa, x1 = 0.6048 | 3.47
313.15 K, 100 kPa, x1 = 0.7069 | 4.54
313.15 K, 100 kPa, x1 = 0.8032 | 5.68
313.15 K, 100 kPa, x1 = 0.9054 | 7.45
313.15 K, 101 kPa, x2 = 0.0864 | 7.725
313.15 K, 101 kPa, x2 = 0.1758 | 5.998
313.15 K, 101 kPa, x2 = 0.3623 | 3.551
313.15 K, 101 kPa, x2 = 0.5609 | 2.064
313.15 K, 101 kPa, x2 = 0.7734 | 1.185
313.15 K, 101 kPa, x2 = 0.8848 | 0.8951
318.15 K, 100 kPa, x1 = 0.1049 | 0.96
318.15 K, 100 kPa, x1 = 0.2019 | 1.21
318.15 K, 100 kPa, x1 = 0.3063 | 1.53
318.15 K, 100 kPa, x1 = 0.3993 | 2.12
318.15 K, 100 kPa, x1 = 0.4986 | 2.43
318.15 K, 100 kPa, x1 = 0.6048 | 3.05
318.15 K, 100 kPa, x1 = 0.7069 | 3.98
318.15 K, 100 kPa, x1 = 0.8032 | 5.04
318.15 K, 100 kPa, x1 = 0.9054 | 6.45
318.15 K, 101 kPa, x2 = 0.0864 | 6.606
318.15 K, 101 kPa, x2 = 0.1758 | 5.171
318.15 K, 101 kPa, x2 = 0.3623 | 3.139
318.15 K, 101 kPa, x2 = 0.5609 | 1.873
318.15 K, 101 kPa, x2 = 0.7734 | 1.096
318.15 K, 101 kPa, x2 = 0.8848 | 0.8415
323.15 K, 100 kPa, x1 = 0.1049 | 0.87
323.15 K, 100 kPa, x1 = 0.2019 | 1.08
323.15 K, 100 kPa, x1 = 0.3063 | 1.38
323.15 K, 100 kPa, x1 = 0.3993 | 1.92
323.15 K, 100 kPa, x1 = 0.4986 | 2.19
323.15 K, 100 kPa, x1 = 0.6048 | 2.8
323.15 K, 100 kPa, x1 = 0.7069 | 3.53
323.15 K, 100 kPa, x1 = 0.8032 | 4.4
323.15 K, 100 kPa, x1 = 0.9054 | 5.59
323.15 K, 101 kPa, x2 = 0.0864 | 5.671
323.15 K, 101 kPa, x2 = 0.1758 | 4.507
323.15 K, 101 kPa, x2 = 0.3623 | 2.789
323.15 K, 101 kPa, x2 = 0.5609 | 1.711
323.15 K, 101 kPa, x2 = 0.7734 | 1.022
323.15 K, 101 kPa, x2 = 0.8848 | 0.7911
